# Patent publication US9981962B2, “Pyrazole derivatives as NIK inhibitors” (Janssen Pharmaceutica NV, priority 2014, dated 2018)
# pEC50, pIC50: −log10 of the molar value.
# Key:
# [1] = target: T1, Recombinant Human NF-kappaB-Inducing Kinase (NIK/MAP3K14) (Homo sapiens, UniProt Q99558); experiment: Biological Assay A2: inhibition of auto-phosphorylation of recombinant human NIK/MAP3K14 (AlphaScreen); type: biochemical; conditions: 0.2 nM GST-tagged NIK, 25 microM ATP, 1 h at 25° C., averaged values
# T1 sequence (Q99558 whole entry): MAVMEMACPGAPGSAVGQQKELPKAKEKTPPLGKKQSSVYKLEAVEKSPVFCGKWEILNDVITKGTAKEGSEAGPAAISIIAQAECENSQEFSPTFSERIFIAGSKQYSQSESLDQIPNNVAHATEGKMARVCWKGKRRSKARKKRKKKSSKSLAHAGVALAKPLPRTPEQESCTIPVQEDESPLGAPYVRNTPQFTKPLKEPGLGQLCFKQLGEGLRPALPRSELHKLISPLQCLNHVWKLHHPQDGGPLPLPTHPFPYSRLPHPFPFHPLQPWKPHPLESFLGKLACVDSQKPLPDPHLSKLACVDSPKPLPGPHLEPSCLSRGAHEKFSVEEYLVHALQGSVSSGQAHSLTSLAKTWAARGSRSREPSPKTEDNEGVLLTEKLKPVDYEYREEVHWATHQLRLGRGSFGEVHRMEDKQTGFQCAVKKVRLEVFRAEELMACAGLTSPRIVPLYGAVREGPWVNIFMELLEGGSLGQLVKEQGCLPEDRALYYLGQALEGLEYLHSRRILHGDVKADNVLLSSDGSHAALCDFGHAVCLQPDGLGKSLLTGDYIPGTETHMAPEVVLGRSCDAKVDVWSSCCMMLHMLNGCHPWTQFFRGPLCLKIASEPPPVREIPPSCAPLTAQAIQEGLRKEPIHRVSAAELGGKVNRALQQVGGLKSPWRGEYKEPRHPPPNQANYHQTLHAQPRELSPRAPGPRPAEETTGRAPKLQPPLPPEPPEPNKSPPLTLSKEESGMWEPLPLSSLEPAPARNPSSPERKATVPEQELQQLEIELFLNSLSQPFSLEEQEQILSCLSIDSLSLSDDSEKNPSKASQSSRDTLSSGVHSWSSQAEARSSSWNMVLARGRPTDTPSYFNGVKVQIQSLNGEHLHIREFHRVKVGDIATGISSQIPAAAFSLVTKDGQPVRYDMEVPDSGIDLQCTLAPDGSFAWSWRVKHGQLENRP
# Experimental: Inhibition of Auto-Phosphorylation of Recombinant Human NF-kappaB-Inducing Kinase (NIK/MAP3K14) Activity (AlphaScreen®)
# NIK/MAP3K14 auto-phosphorylation activity was measured using the AlphaScreen® (αscreen) format (Perkin Elmer). All compounds tested were dissolved in dimethyl sulfoxide (DMSO) and further dilutions were made in assay buffer. Final DMSO concentration was 1% (v/v) in assays. Assay buffer was 50 mM Tris pH 7.5 containing 1 mM EGTA (ethylene glycol tetraacetic acid), 1 mM DTT (dithiothreitol), 0.1 mM Na3VO4, 5 mM MgCl2, 0.01% Tween® 20. Assays were carried out in 384 well Alphaplates (Perkin Elmer). Incubations consisted of compound, 25 microM Adenosine-5′-triphosphate (ATP), and 0.2 nM NIK/MAP3K14. Incubations were initiated by addition of GST-tagged NIK/MAP3K14 enzyme, carried out for 1 h at 25° C. and terminated by addition of stop buffer containing anti-phospho-IKK Ser176/180 antibody. Protein A Acceptor and Glutathione-Donor beads were added before reading using an EnVision® Multilabel Plate Reader (Perkin Elmer). Signal obtained in the wells containing blank samples was subtracted from all other wells and IC50's were determined by fitting a sigmoidal curve to % inhibition of control versus Log10 compound concentration.
# JJN-3 cells = experiment: Biological Assay C: antiproliferative activity on JJN-3 cells (CellTiter-Glo); type: cell-based, human; conditions: 72 hr treatment, averaged values
# Experimental: (§1) Determination of Antiproliferative Activity on LP-1, L-363 and JJN-3 Cells
# (§2) All compounds tested were dissolved in DMSO and further dilutions were made in culture medium. Final DMSO concentration was 0.3% (v/v) in cell proliferation assays. Viability was assessed using CellTiter-Glo cell viability assay kit (Promega). The human LP-1, L-363 and JJN-3 cells (DSMZ) were cultured in RPMI 1640 medium supplemented with 2 mM L-glutamine, and 10% fetal calf serum (PAA). Cells were routinely kept as suspension cells at 37° C. in a humidified 5% CO2 atmosphere. Cells were passaged at a seeding density of 0.2×10^6/ml twice a week. Cells were seeded in black tissue culture treated 96-well plates (Perkin Elmer). Densities used for plating ranged from 2,000 to 6,000 cells per well in a total volume of 75 μl medium. After twenty four hours, drugs and/or solvents were added (25 μl) to a final volume of 100 μl. Following 72 hr of treatment plates were removed from the incubator and allowed to equilibrate to room temperature for approx 10 min. 100 ut CellTiter-Glo reagent was added to each well that was then covered (Perkin Elmer Topseal) and shaken on plate shaker for 10 min. Luminescence was measured on a HTS Topcount (Perkin Elmer). Within an experiment, the results for each treatment were the mean of 2 replicate wells. For initial screening purposes, compounds were tested using a 9 point dilution curve (serial 1:3 dilutions). For each experiment, controls (containing no drug) and a blank incubation (containing cells read at the time of compound addition) were run in parallel. The blank value was subtracted from all control and sample values. For each sample, the mean value for cell growth (in relative light units) was expressed as a percentage of the mean value for cell growth of the control.
# L-363 cells = experiment: Biological Assay C: antiproliferative activity on L-363 cells (CellTiter-Glo); type: cell-based, human; conditions: 72 hr treatment, averaged values
# Experimental: as §1, §2
# LP-1 cells = experiment: Biological Assay C: antiproliferative activity on LP-1 cells (CellTiter-Glo); type: cell-based, human; conditions: 72 hr treatment, averaged values
# Experimental: as §1, §2
# [2] = target: T1, Recombinant Human NF-kappaB-Inducing Kinase (NIK/MAP3K14); experiment: Biological Assay A: inhibition of recombinant human NIK/MAP3K14 activity (MSD, MBP substrate); conditions: 10 nM NIK, 25 μM ATP, 1 h at 25° C.; averaged over all measurements on all batches; read-out: Biochemical (MSD IC50)
# Experimental: Inhibition of Recombinant Human NF-kappaB-Inducing Kinase (NIK/MAP3K14) Activity Assay buffer was 50 mM Tris pH 7.5 containing 1 mM EGTA (ethylene glycol tetraacetic acid), 1 mM DTT (dithiothreitol), 0.1 mM Na3VO4, 5 mM MgCl2, 0.01% Tween® 20. Assays were carried out in 384 well Mesoscale high binding plates which had been coated with myelin basic protein (MBP) and blocked with bovine serum albumin to prevent non-specific protein binding. All compounds tested were dissolved in dimethyl sulfoxide (DMSO) and further dilutions were made in assay buffer. Final DMSO concentration was 1% (v/v) in assays. Incubations consisted of compound (1% DMSO in control and blank wells), 25 μM Adenosine-5′-triphosphate (ATP), and 10 nM NIK/MAP3K14 substituting enzyme with buffer in the blank wells. Incubations were carried out for 1 h at 25° C. and were followed by washing and sequential incubation with rabbit anti-phospho-MBP and anti-rabbit Ig Sulfotag antibody before reading bound Sulfotag on a Mesoscale Discovery. Signal obtained in the wells containing blank samples was subtracted from all other wells and ICso's were determined by fitting a sigmoidal curve to % inhibition of control versus Log10 compound concentration.
# [3] = tested on: P-IKKα levels in L363 cells; experiment: Biological Assay B: effect of compounds on P-IKKα levels in L363 cells; type: cell-based; conditions: Homo sapiens, L-363, BAFF stimulated, 2 hr treatment, averaged values, read-out: IKKα Cellular IC50
# Experimental: Effect of Compounds on P-IKKα Levels in L363 Cells
# All compounds tested were dissolved in DMSO and further dilutions were made in culture medium. Final DMSO concentration was 1% (v/v) in cell assays. The human L363 cells (ATCC) were cultured in RPMI 1640 medium supplemented with GlutaMax and 10% fetal calf serum (PAA). Cells were routinely maintained at densities of 0.2×10^6 cells per ml—1×10^6 cells per ml at 37° C. in a humidified 5% CO2 atmosphere. Cells were passaged twice a week splitting back to obtain the low density. Cells were seeded in 96 well plates (Nunc 167008) at 2×10^6 per ml media in a volume of 75 μl per well plus 25 μl 1 μg/ml recombinant human B-cell activating factor (BAFF/BLyS/TNFSF13B). Seeded cells were incubated at 37° C. in a humidified 5% CO2 atmosphere for 24 hr. Drugs and/or solvents were added (20 μl) to a final volume of 120 μl. Following 2 hr treatment plates were removed from the incubator and cell lysis was achieved by the addition of 30 μl 5× lysis buffer followed by shaking on a plate shaker at 4° C. for 10 min. At the end of this incubation lysed cells were centrifuged at 800×g for 20 min at 4° C. and the lysate was assessed for P-IKKα levels by sandwich immuno-assay carried out in anti-rabbit antibody coated Mesoscale plates. Within an experiment, the results for each treatment were the mean of 2 replicate wells. For initial screening purposes, compounds were tested using an 8 point dilution curve (serial 1:3 dilutions). For each experiment, controls (containing MG132 and BAFF but no test drug) and a blank incubation (containing MG132 and BAFF and 10 μM ADS125117, a test concentration known to give full inhibition) were run in parallel. The blank incubation value was subtracted from all control and sample values. To determine the IC50 a sigmoidal curve was fitted to the plot of % inhibition of control P-IKKα levels versus Log10 compound concentration.
Structure (SMILES),pIC50 [1],pIC50 [2],pIC50 [3],pEC50 (JJN-3 cells),pEC50 (L-363 cells),pEC50 (LP-1 cells),"pEC50 (JJN-3 cells; Homo sapiens, JJN-3, 72 h)","pEC50 (L-363 cells; Homo sapiens, L-363, 72 h)","pEC50 (LP-1 cells; Homo sapiens, LP-1, 72 h)"
CC(C)(O)C#Cc1ccc2[nH]cc(-c3cn[nH]c3)c2c1 [Compound 1],7.66,7.55,6.91,,,,6.36,6.61,6.49
CCn1cc(-c2c[nH]nc2N)c2cc(C#CC(C)(C)O)ccc21 [Compound 2],7.37,7.36,7.06,,,,6.13,6.00,5.85
CCn1cc(-c2c[nH]nc2C(F)(F)F)c2cc(C#CC(C)(C)O)ccc21 [Compound 4],6.46,6.24,,,,,,,
[2H]C([2H])([2H])C(O)(C#Cc1cc2c(-c3c[nH]nc3Cl)cn(C3CCN(C4CC4)CC3)c2cc1F)C([2H])([2H])[2H] [Compound 15],7.15,,,,,,6.22,6.58,6.24
[2H]c1n[nH]c([2H])c1-c1cn(CC)c2cc(F)c(C#CC(C)(C)O)cc12 [Compound 16],5.07,,,,,,,,4.85
COCCCn1cc(-c2c[nH]nc2Cl)c2cc(C#CC(C)(O)C3CC3)c(F)cc21 (stereo not drawn) [Compound 17],6.74,,,,,,5.82,5.49,5.85
COCCCn1cc(-c2c[nH]nc2Cl)c2cc(C#CC(C)(C)O)c(F)cc21 [Compound 18],7.48,,,,,,6.15,5.93,5.82
CN1CCC(n2cc(-c3c[nH]nc3Cl)c3cc(C#CC(C)(O)C4CC4)c(F)cc32)CC1 (stereo not drawn) [Compound 19],6.72,,,,,,6.09,6.20,6.13
CN1CCC(n2cc(-c3c[nH]nc3Cl)c3cc(C#CC(C)(C)O)c(F)cc32)CC1 [Compound 20],7.68,,,,,,7.21,7.37,6.95
CC(O)(C#Cc1cc2c(-c3c[nH]nc3Cl)cn(CCCO)c2cc1F)C1CC1 (stereo not drawn) [Compound 21],7.17,,,,,,5.96,5.71,5.45
CC(C)(O)C#Cc1cc2c(-c3c[nH]nc3Cl)cn(CCCO)c2cc1F [Compound 22],7.96,,7.49,,,,6.59,6.37,5.87
CCn1cc(-c2c[nH]nc2Cl)c2cc(C#CC(C)(C)O)cc(Cl)c21 [Compound 23],6.69,,,,,,5.56,5.27,5.44
CCn1cc(-c2c[nH]nc2Cl)c2cc(C#CC(C)(C)O)c(F)cc21 [Compound 24],7.96,,6.90,,,,6.13,6.17,5.80
CCn1cc(-c2c[nH]nc2Cl)c2cc(C#CC(C)(C)O)c(F)c(F)c21 [Compound 25],7.07,,,,,,5.65,5.36,5.49
CN1CCC(n2cc(-c3c[nH]nc3Cl)c3cc(C#CC4(O)CCCC4)c(F)cc32)CC1 [Compound 36],,,,,,,5.91,6.07,5.92

# More lines, main results first:
pIC50 [1],pIC50 [2],pIC50 [3],Structure (SMILES),pEC50 (JJN-3 cells),pEC50 (L-363 cells),pEC50 (LP-1 cells),"pEC50 (JJN-3 cells; Homo sapiens, JJN-3, 72 h)","pEC50 (L-363 cells; Homo sapiens, L-363, 72 h)","pEC50 (LP-1 cells; Homo sapiens, LP-1, 72 h)"
6.84,,,"[2H]C([2H])([2H])C(O)(C#Cc1cc2c(-c3c[nH]nc3Cl)cn(C3CCCN(CC)C3)c2cc1F)C([2H])([2H])[2H] (single isomer, unassigned) [Compound 31]",6.22,6.36,6.14,,,
7.12,,,"[2H]C([2H])([2H])C(O)(C#Cc1cc2c(-c3c[nH]nc3Cl)cn(C3CCCN(CC)C3)c2cc1F)C([2H])([2H])[2H] (single isomer, unassigned) [Compound 32]",6.36,6.51,6.39,,,
7.29,,,CCn1cc(-c2cn[nH]c2)c2cc(C#CC(C)(C)O)cc(F)c21 [Compound 26],,,,5.80,5.95,5.66
6.26,,,CCn1cc(-c2cn[nH]c2)c2cc(C#CC(C)(C)O)cc(C(F)(F)F)c21 [Compound 27],,,,,,
6.26,,,CCn1cc(-c2cn[nH]c2)c2cc(C#CC(C)(C)O)cc(C#N)c21 [Compound 28],,,,,,
7.30,,,CN1CC(n2cc(-c3c[nH]nc3Cl)c3cc(C#CC(C)(C)O)c(F)cc32)C1 [Compound 29],,,,6.43,6.75,6.12
6.90,,,[2H]C([2H])([2H])C(O)(C#Cc1cc2c(-c3c[nH]nc3Cl)cn(C3CCCN(CC)C3)c2cc1F)C([2H])([2H])[2H] (stereo not drawn) [Compound 30],,6.70,,6.42,,6.40
7.74,,,CN1CCC(n2cc(-c3c[nH]nc3Cl)c3cc(C#CC(C)(O)c4nccs4)c(F)cc32)CC1 (stereo not drawn) [Compound 33],,,,6.20,6.06,5.79
7.38,,,Cc1cc(C(C)(O)C#Cc2cc3c(-c4c[nH]nc4Cl)cn(C4CCN(C)CC4)c3cc2F)no1 (stereo not drawn) [Compound 34],,,,5.86,5.91,5.61
7.08,,,Cc1nc(C(C)(O)C#Cc2cc3c(-c4c[nH]nc4Cl)cn(C4CCN(C)CC4)c3cc2F)no1 (stereo not drawn) [Compound 35],,,,5.87,5.96,5.34
6.79,,,CN1CCC(n2cc(-c3c[nH]nc3Cl)c3cc(C#CC(C)(O)c4ncccn4)c(F)cc32)CC1 (stereo not drawn) [Compound 37],,,,5.35,5.54,5.60
